According to ChEMBL document CHEMBL4406894, “Design, synthesis and biological evaluation of novel desloratadine derivatives with anti-inflammatory and H1 antagonize activities” (Bioorg Med Chem Lett, 2019):
Calls of active or inactive are those of the source. The calls are words filed in the database; no cut-off is given here.

Key:
Mus musculus [1] = experiment: Immunosuppressive activity in BALB/C mouse assessed as inhibition in TNFalpha production by TNFalpha level at 5 mg/kg by ELISA; assay type: functional
Mus musculus [2] = species: Mus musculus; conditions: BALB/C, at 5 mg/kg
Mus musculus [3] = experiment: Anti-inflammatory activity in DNFB-induced mouse ear edema model assessed as inhibition in ear swelling at 5 mg/kg relative to control; assay type: functional
[4] = Intrinsic clearance in dog liver microsomes incubated for 6 hrs by LC/MS analysis; assay type: ADME, Canis lupus familiaris, Microsome; conditions: read-out: CLH
[5] = Half life in mouse liver microsomes incubated for 6 hrs by LC/MS analysis; assay type: ADME, Microsome
[6] = Intrinsic clearance in human liver microsomes incubated for 6 hrs by LC/MS analysis; assay type: ADME, Microsome; conditions: read-out: CLH
[7] = Half life in monkey liver microsomes incubated for 6 hrs by LC/MS analysis; assay type: ADME, Macaca mulatta, Microsome; conditions: rhesus monkey
[8] = Intrinsic clearance in Rat liver microsomes incubated for 6 hrs by LC/MS analysis; assay type: ADME, Microsome; conditions: read-out: CLH
[9] = Half life in human liver microsomes incubated for 6 hrs by LC/MS analysis; assay type: ADME, Microsome
[10] = Half life in dog liver microsomes incubated for 6 hrs by LC/MS analysis; assay type: ADME, Canis lupus familiaris, Microsome
[11] = Intrinsic clearance in mouse liver microsomes incubated for 6 hrs by LC/MS analysis; assay type: ADME, Microsome; conditions: read-out: CLH
[12] = Intrinsic clearance in monkey liver microsomes incubated for 6 hrs by LC/MS analysis; assay type: ADME, Macaca mulatta, Microsome; conditions: rhesus monkey, read-out: CLH
[13] = Half life in rat liver microsomes incubated for 6 hrs by LC/MS analysis; assay type: ADME, Microsome
[14] = Toxicity in ICR mouse; conditions: in vivo
[15] = Toxicity in Sprague-Dawley rat; conditions: in vivo
[16] = Clearance in ICR mouse at 2.5 mg/kg, iv; assay type: ADME, organism-based; conditions: in vivo
[17] = Oral bioavailability in Sprague-Dawley rat at 10 mg/kg; assay type: ADME, organism-based; conditions: in vivo
[18] = Half life in ICR mouse at 2.5 mg/kg, iv; assay type: ADME, organism-based; conditions: in vivo
[19] = Half life in Sprague-Dawley rat at 2 mg/kg, iv; assay type: ADME, organism-based; conditions: in vivo
[20] = Half life in Sprague-Dawley rat at 10 mg/kg, po; assay type: ADME, organism-based; conditions: in vivo
[21] = Clearance in Sprague-Dawley rat at 2 mg/kg, iv; assay type: ADME, organism-based; conditions: in vivo

## COc1ccccc1OC[C@@H](O)CN1CCC(=C2c3ccc(Cl)cc3CCc3cccnc32)CC1
Mus musculus [1]
  Activity: 1.18 ng/mL

## COc1ccccc1OCCCN1CCC(=C2c3ccc(Cl)cc3CCc3cccnc32)CC1
Mus musculus [2]
  inhibition: Active
Mus musculus [3]
  inhibition in vivo at 5 mg/kg: 59.5%

## Cc1ncc2n1-c1ccc(Cl)cc1C(c1ccccc1F)=NC2 [MIDAZOLAM]
[4]
  microsomal CLint: 1230 µL/min/mg
[5]
  half-life: 8.06 min
[6]
  microsomal CLint: 289 µL/min/mg
[7]
  half-life: 3.74 min
[8]
  microsomal CLint: 808 µL/min/mg
[9]
  half-life: 12 min
[10]
  half-life: 2.81 min
[11]
  microsomal CLint: 430 µL/min/mg
[12]
  microsomal CLint: 927 µL/min/mg
[13]
  half-life: 4.29 min

## Cc1ccccc1OCC(O)CN1CCC(=C2c3ccc(Cl)cc3CCc3cccnc32)CC1 (configuration not stated)
Mus musculus [2]
  inhibition: Active
Mus musculus [3]
  inhibition in vivo at 5 mg/kg: 59.1%

## OC(COc1ccccc1)CN1CCC(=C2c3ccc(Cl)cc3CCc3cccnc32)CC1 (configuration not stated)
Mus musculus [2]
  inhibition: Active
Mus musculus [3]
  inhibition in vivo at 5 mg/kg: 59.1%

## OC(COc1ccccc1F)CN1CCC(=C2c3ccc(Cl)cc3CCc3cccnc32)CC1 (configuration not stated)
Mus musculus [2]
  inhibition: Active
Mus musculus [3]
  inhibition in vivo at 5 mg/kg: 26%

## Clc1ccc2c(c1)CCc1cccnc1C2=C1CCNCC1 [DESLORATADINE]
[14]
  LD50: 250 mg/kg
[15]
  LD50: 250 mg/kg

## COc1ccccc1OC[C@H](O)CN1CCC(=C2c3ccc(Cl)cc3CCc3cccnc32)CC1
Mus musculus [1]
  Activity: 1.21 ng/mL

## COc1cccc(OCC(O)CN2CCC(=C3c4ccc(Cl)cc4CCc4cccnc43)CC2)c1 (configuration not stated)
Mus musculus [2]
  inhibition: Active
Mus musculus [3]
  inhibition in vivo at 5 mg/kg: 43.1%

## COc1ccccc1OCC(O)CN1CCC(=C2c3ccc(Cl)cc3CCc3cccnc32)CC1 (racemic)
[4]
  microsomal CLint: 158 µL/min/mg
[5]
  half-life: 1.47 min
[6]
  microsomal CLint: 179 µL/min/mg
[8]
  microsomal CLint: 359 µL/min/mg
[16]
  clearance: 99.5 mL/min/kg
Mus musculus [3]
  inhibition in vivo at 5 mg/kg: 59.2%
[17]
  bioavailability: 18%
[18]
  half-life: 28.2 min
[19]
  half-life: 54 min
[9]
  half-life: 7.74 min
[10]
  half-life: 8.76 min
[14]
  MTD: 750 mg/kg
[11]
  microsomal CLint: 945 µL/min/mg
[20]
  half-life: 84 min
[15]
  MTD: 750 mg/kg
[13]
  half-life: 3.87 min
Mus musculus [1]
  Activity: 1.14 ng/mL
[21]
  clearance: 19.6 mL/min/kg
